Measured values reported in the NIST ThermoML archive (doi:10.1016/j.jct.2013.02.017).
Numbers after ± are expanded uncertainties.

Details: relaxation calorimetry - Quantum Design PPMS; for molar entropy: 101.33 kPa

For `O=P([O-])([O-])[O-].[Fe+3]` [iron(III) phosphate], the molar entropy (1 K, Crystal 2) was 0.001252 ± 0.00028 J/K/mol, the molar entropy (2 K, Crystal 2) was 0.01157 ± 0.0018 J/K/mol and the molar entropy (3 K, Crystal 2) was 0.0497 ± 0.0077 J/K/mol. It also gave a molar entropy (4 K, Crystal 2) of 0.1381 ± 0.021 J/K/mol, a molar entropy (5 K, Crystal 2) of 0.2911 ± 0.045 J/K/mol and a molar entropy (6 K, Crystal 2) of 0.5136 ± 0.079 J/K/mol. It also gave a molar entropy (7 K, Crystal 2) of 0.8015 ± 0.12 J/K/mol, a molar entropy (8 K, Crystal 2) of 1.143 ± 0.17 J/K/mol and a molar entropy (9 K, Crystal 2) of 1.528 ± 0.23 J/K/mol. For the same compound, the molar entropy (10 K, Crystal 2) was 1.948 ± 0.071 J/K/mol, the molar entropy (11 K, Crystal 2) was 2.4 ± 0.087 J/K/mol and the molar entropy (12 K, Crystal 2) was 2.878 ± 0.1 J/K/mol. For the same compound, the molar entropy (13 K, Crystal 2) was 3.381 ± 0.12 J/K/mol, the molar entropy (14 K, Crystal 2) was 3.904 ± 0.14 J/K/mol and the molar entropy (15 K, Crystal 2) was 4.446 ± 0.16 J/K/mol. It also gave a molar entropy (16 K, Crystal 2) of 5.012 ± 0.18 J/K/mol, a molar entropy (17 K, Crystal 2) of 5.603 ± 0.2 J/K/mol and a molar entropy (18 K, Crystal 2) of 6.223 ± 0.22 J/K/mol. The molar entropy (19 K, Crystal 2) was 6.877 ± 0.25 J/K/mol, the molar entropy (20 K, Crystal 2) was 7.545 ± 0.27 J/K/mol and the molar entropy (25 K, Crystal 1) was 11.49 ± 0.41 J/K/mol. It also gave a molar entropy (30 K, Crystal 1) of 14.26 ± 0.51 J/K/mol, a molar entropy (35 K, Crystal 1) of 16.51 ± 0.59 J/K/mol and a molar entropy (40 K, Crystal 1) of 18.7 ± 0.67 J/K/mol. The molar entropy (45 K, Crystal 1) was 20.89 ± 0.75 J/K/mol, the molar entropy (50 K, Crystal 1) was 23.09 ± 0.76 J/K/mol and the molar entropy (55 K, Crystal 1) was 25.3 ± 0.83 J/K/mol. It also gave a molar entropy (60 K, Crystal 1) of 27.52 ± 0.91 J/K/mol, a molar entropy (65 K, Crystal 1) of 29.74 ± 0.98 J/K/mol and a molar entropy (70 K, Crystal 1) of 31.97 ± 1.1 J/K/mol. It also gave a molar entropy (75 K, Crystal 1) of 34.2 ± 1.1 J/K/mol, a molar entropy (80 K, Crystal 1) of 36.44 ± 1.2 J/K/mol and a molar entropy (85 K, Crystal 1) of 38.66 ± 1.3 J/K/mol. It also gave a molar entropy (90 K, Crystal 1) of 40.88 ± 1.3 J/K/mol, a molar entropy (95 K, Crystal 1) of 43.09 ± 1.4 J/K/mol and a molar entropy (100 K, Crystal 1) of 45.3 ± 1.5 J/K/mol. For the same compound, the molar entropy (110 K, Crystal 1) was 49.7 ± 1.6 J/K/mol, the molar entropy (120 K, Crystal 1) was 54.04 ± 1.8 J/K/mol and the molar entropy (130 K, Crystal 1) was 58.32 ± 1.9 J/K/mol. For the same compound, the molar entropy (140 K, Crystal 1) was 62.54 ± 2.1 J/K/mol, the molar entropy (150 K, Crystal 1) was 66.7 ± 2.2 J/K/mol and the molar entropy (160 K, Crystal 1) was 70.79 ± 2.3 J/K/mol. The molar entropy (170 K, Crystal 1) was 74.82 ± 2.5 J/K/mol, the molar entropy (180 K, Crystal 1) was 78.8 ± 2.6 J/K/mol and the molar entropy (190 K, Crystal 1) was 82.72 ± 2.7 J/K/mol. The molar entropy (200 K, Crystal 1) was 86.59 ± 2.9 J/K/mol, the molar entropy (210 K, Crystal 1) was 90.41 ± 3 J/K/mol and the molar entropy (220 K, Crystal 1) was 94.19 ± 3.1 J/K/mol. For the same compound, the molar entropy (230 K, Crystal 1) was 97.92 ± 3.2 J/K/mol, the molar entropy (240 K, Crystal 1) was 101.61 ± 3.4 J/K/mol and the molar entropy (250 K, Crystal 1) was 105.25 ± 3.5 J/K/mol. It also gave a molar entropy (260 K, Crystal 1) of 108.86 ± 3.6 J/K/mol, a molar entropy (270 K, Crystal 1) of 112.42 ± 3.7 J/K/mol and a molar entropy (273.15 K, Crystal 1) of 113.53 ± 3.8 J/K/mol. The molar entropy (280 K, Crystal 1) was 115.93 ± 3.8 J/K/mol, the molar entropy (290 K, Crystal 1) was 119.41 ± 3.9 J/K/mol and the molar entropy (298.15 K, Crystal 1) was 122.21 ± 4 J/K/mol. The molar entropy (300 K, Crystal 1) was 122.84 ± 4 J/K/mol and the Triple point temperature (Crystal 2) was 25 ± 0.1 K.
